Common to all, as to assay type: functional, cell-based
One test deals with A549. Kind of test: Antiproliferative activity against human A549 cells assessed as inhibition of cell proliferation incubated for 48 hrs by CCK-8 assay. The settings on record: A549, 48 h. (In general: Tetrazolium dyes change colour on reduction, which living cells bring about.)
The next test deals with MCF7. Nature of the test: Antiproliferative activity against human MCF7 cells assessed as inhibition of cell proliferation incubated for 48 hrs by CCK-8 assay. The following applies: MCF7, 48 h.
In a further test the test system is PANC-1. Kind of test: Antiproliferative activity against human PANC-1 cells assessed as inhibition of cell proliferation incubated for 48 hrs by CCK-8 assay. The settings on record: PANC-1, 48 h.
For another test, the system named is MIA PaCa-2. Nature of the test: Antiproliferative activity against human MIA PaCa-2 cells assessed as inhibition of cell proliferation incubated for 48 hrs by CCK-8 assay. The following applies: MIA PaCa-2, 48 h.
The subject of another test is HepG2. Kind of test: Antiproliferative activity against human HepG2 cells assessed as inhibition of cell proliferation incubated for 48 hrs by CCK-8 assay. The following applies: HepG2, 48 h.

As to `C=C1C(=O)[C@]23[C@H](OC(=O)CCCC(=O)OCCOC(=O)c4ccc(N=C=S)cc4)[C@H]1CC[C@H]2[C@@]12CO[C@]3(O)[C@@H](O)[C@@H]1C(C)(C)CC[C@@H]2OC(C)=O`, the half-inhibitory concentration (IC50) was over 40 µM in the test with A549 and 8.7 µM with MCF7.
On the same counts, the results for `C=C1C(=O)[C@]23[C@H](OC(=O)CCC(=O)OCCCCOC(=O)c4ccc(N=C=S)cc4)[C@H]1CC[C@H]2[C@@]12CO[C@]3(O)[C@@H](O)[C@@H]1C(C)(C)CC[C@@H]2OC(C)=O` are over 40 µM and 11.6 µM.
Consider `COc1cccc2c1C(=O)c1c(O)c3c(c(O)c1C2=O)C[C@@](O)(C(=O)CO)C[C@@H]3O[C@H]1C[C@H](N)[C@H](O)[C@H](C)O1` [DOXORUBICIN], for which the IC50 was 1.19 µM in the test on PANC-1 and 1.16 µM with MIA PaCa-2.
With `O=c1nc(-c2ccc(O)cc2)ss1`, the half-maximal inhibitory concentration (IC50) in the test with A549 and in the test on MCF7 was over 40 µM in each case.
As for `C=C1C(=O)[C@]23[C@H](OC(=O)CCCC(=O)OCC#CCOC(=O)c4ccc(N=C=S)cc4)[C@H]1CC[C@H]2[C@@]12CO[C@]3(O)[C@@H](O)[C@@H]1C(C)(C)CC[C@@H]2O`, the IC50 in the test on A549 and with MCF7 was over 40 µM throughout.
In the case of `C=C1C(=O)[C@]23[C@H](OC(=O)CCC(=O)OCC#CCOC(=O)c4ccc(N=C=S)cc4)[C@H]1CC[C@H]2[C@@]12CO[C@]3(O)[C@@H](O)[C@@H]1C(C)(C)CCC2=O`, the figures for the IC50 with A549 and in the test on MCF7 were over 40 µM and 9.93 µM, respectively.
As for `C=C1C(=O)[C@]23[C@H](OC(=O)CCCC(=O)OCc4ccc(-c5nc(=O)ss5)cc4)[C@H]1CC[C@H]2[C@@]12CO[C@]3(O)[C@@H](O)[C@@H]1C(C)(C)CC[C@@H]2OC(C)=O`, the IC50 with A549 amounted to 14.3 µM; with MCF7, 13 µM.
The like results for `C=C1C(=O)[C@]23[C@H](OC(=O)c4ccc(N=C=S)cc4)[C@H]1CC[C@H]2[C@@]12CO[C@]3(O)[C@@H](O)[C@@H]1C(C)(C)CCC2=O` were, in that order, 21.2 µM and 7.08 µM.
On to `C=C1C(=O)[C@]23[C@H](OC(=O)CCCC(=O)OCC#CCOC(=O)c4ccc(N=C=S)cc4)[C@H]1CC[C@H]2[C@@]12CO[C@]3(O)[C@@H](O)[C@@H]1C(C)(C)CCC2=O`, for which the IC50 with A549 was over 40 µM; in the test on MCF7, 14 µM.
Consider `C=C1C(=O)[C@]23[C@H](OC(=O)CCC(=O)OCCCOC(=O)c4ccc(N=C=S)cc4)[C@H]1CC[C@H]2[C@@]12CO[C@]3(O)[C@@H](O)[C@@H]1C(C)(C)CCC2=O`, for which the results for the IC50 in the test with A549 and in the test with MCF7 were 16.3 µM and 10.4 µM, respectively.
The like results for `C=C1C(=O)[C@]23[C@H](OC(=O)CCC(=O)OCCOC(=O)c4ccc(N=C=S)cc4)[C@H]1CC[C@H]2[C@@]12CO[C@]3(O)[C@@H](O)[C@@H]1C(C)(C)CCC2=O` were, in that order, 32.2 µM and 16.7 µM.
The like results for `C=C1C(=O)[C@]23[C@H](OC(=O)CCCC(=O)OCCOC(=O)c4ccc(N=C=S)cc4)[C@H]1CC[C@H]2[C@@]12CO[C@]3(O)[C@@H](O)[C@@H]1C(C)(C)CC[C@@H]2O` were, in that order, over 40 µM and over 40 µM.
With `C=C1C(=O)[C@]23[C@H](OC(=O)CCC(=O)Oc4ccc(-c5nc(=O)ss5)cc4)[C@H]1CC[C@H]2[C@@]12CO[C@]3(O)[C@@H](O)[C@@H]1C(C)(C)CC[C@@H]2OC(C)=O`, the figures for the IC50 with A549 and in the test on MCF7 were 15.2 µM and 15.4 µM, respectively.
With `C=C1C(=O)[C@]23[C@H](OC(=O)CCCC(=O)OCCCCOC(=O)c4ccc(N=C=S)cc4)[C@H]1CC[C@H]2[C@@]12CO[C@]3(O)[C@@H](O)[C@@H]1C(C)(C)CC[C@@H]2OC(C)=O`, the half-maximal inhibitory concentration (IC50) in the test with A549 was over 40 µM; in the test on MCF7, 9.99 µM.
The like results for `C=C1C(=O)[C@]23[C@H](OC(=O)CCC(=O)OCCCCOC(=O)c4ccc(N=C=S)cc4)[C@H]1CC[C@H]2[C@@]12CO[C@]3(O)[C@@H](O)[C@@H]1C(C)(C)CCC2=O` were, in that order, 26.6 µM and 8.08 µM.
On the same counts, the results for `C=C1C(=O)[C@]23[C@H](OC(=O)CCCC(=O)OCCCOC(=O)c4ccc(N=C=S)cc4)[C@H]1CC[C@H]2[C@@]12CO[C@]3(O)[C@@H](O)[C@@H]1C(C)(C)CC[C@@H]2O` are over 40 µM and over 40 µM.
Consider `C=C1C(=O)[C@]23[C@H](O)[C@H]1CC[C@H]2[C@@]12CO[C@@]3(O)[C@@H](O)[C@@H]1C(C)(C)CC[C@@H]2OC(C)=O`, for which the IC50 in the test on A549 is 5.47 µM; in the test on MCF7, 8.76 µM.
The like results for `C=C1C(=O)[C@]23[C@H](OC(=O)CCCC(=O)OCc4ccc(-c5nc(=O)ss5)cc4)[C@H]1CC[C@H]2[C@@]12CO[C@]3(O)[C@@H](O)[C@@H]1C(C)(C)CCC2=O` were, in that order, 28.5 µM and over 40 µM.
Turning to `C=C1C(=O)[C@]23[C@H](OC(=O)CCCC(=O)OCCCOC(=O)c4ccc(N=C=S)cc4)[C@H]1CC[C@H]2[C@@]12CO[C@]3(O)[C@@H](O)[C@@H]1C(C)(C)CCC2=O`, the figures for the IC50 in the test on A549 and in the test with MCF7 were 23.2 µM and 8.43 µM, respectively.
For the molecule `O=C(O)c1ccc(N=C=S)cc1`, the IC50 in the test on PANC-1, in the test on HepG2, in the test on A549, with MIA PaCa-2 and with MCF7 was over 40 µM in each case.
On to `C=C1C(=O)[C@]23[C@H](OC(=O)c4ccc(N=C=S)cc4)[C@H]1CC[C@H]2[C@@]12CO[C@]3(O)[C@@H](O)[C@@H]1C(C)(C)CC[C@@H]2OC(C)=O`, for which the concentration for half-maximal inhibition (IC50) was found to be 28.1 µM in the test on A549 and 13 µM with MCF7.
The like results for `C=C1C(=O)[C@]23[C@H](OC(=O)CCC(=O)Oc4ccc(-c5nc(=O)ss5)cc4)[C@H]1CC[C@H]2[C@@]12CO[C@]3(O)[C@@H](O)[C@@H]1C(C)(C)CC[C@@H]2O` were, in that order, 24.2 µM and over 40 µM.
In the case of `C=C1C(=O)[C@]23[C@H](OC(=O)CCC(=O)OCC#CCOC(=O)c4ccc(N=C=S)cc4)[C@H]1CC[C@H]2[C@@]12CO[C@]3(O)[C@@H](O)[C@@H]1C(C)(C)CC[C@@H]2OC(C)=O`, the IC50 in the test with PANC-1 is over 40 µM; in the test on HepG2, 7.65 µM; in the test on A549, over 40 µM; with MIA PaCa-2, 28.7 µM; in the test with MCF7 it was 4.49 µM.
Turning to `C=C1C(=O)[C@]23[C@H](OC(=O)CCCC(=O)OCCOC(=O)c4ccc(N=C=S)cc4)[C@H]1CC[C@H]2[C@@]12CO[C@]3(O)[C@@H](O)[C@@H]1C(C)(C)CCC2=O`, the 50% inhibitory concentration (IC50) in the test on A549 amounted to 32.4 µM; in the test with MCF7, 19.2 µM.
Consider `C=C1C(=O)[C@]23[C@H](OC(=O)CCCC(=O)OCC#CCOC(=O)c4ccc(N=C=S)cc4)[C@H]1CC[C@H]2[C@@]12CO[C@]3(O)[C@@H](O)[C@@H]1C(C)(C)CC[C@@H]2OC(C)=O`, for which the half-maximal inhibitory concentration (IC50) with A549 is over 40 µM; in the test with MCF7 it was 12.8 µM.
Consider `C=C1C(=O)[C@]23[C@H](O)[C@H]1CC[C@H]2[C@@]12CO[C@]3(O)[C@@H](O)[C@@H]1C(C)(C)CCC2=O`, for which the half-inhibitory concentration (IC50) with A549 is 6.84 µM; in the test with MCF7 it was 13.5 µM.
For `C=C1C(=O)[C@]23[C@H](OC(=O)CCC(=O)OCCCOC(=O)c4ccc(N=C=S)cc4)[C@H]1CC[C@H]2[C@@]12CO[C@]3(O)[C@@H](O)[C@@H]1C(C)(C)CC[C@@H]2OC(C)=O`, the IC50 turned out to be 24.9 µM in the test with A549 and 8.45 µM with MCF7.
The like results for `C=C1C(=O)[C@]23[C@H](OC(=O)CCC(=O)OCCOC(=O)c4ccc(N=C=S)cc4)[C@H]1CC[C@H]2[C@@]12CO[C@]3(O)[C@@H](O)[C@@H]1C(C)(C)CC[C@@H]2O` were, in that order, over 40 µM and over 40 µM.
On the same counts, the results for `C=C1C(=O)[C@]23[C@H](OC(=O)CCCC(=O)OCc4ccc(-c5nc(=O)ss5)cc4)[C@H]1CC[C@H]2[C@@]12CO[C@]3(O)[C@@H](O)[C@@H]1C(C)(C)CC[C@@H]2O` are over 40 µM and over 40 µM.
On the same counts, the results for `C=C1C(=O)[C@]23[C@H](OC(=O)CCC(=O)Oc4ccc(-c5nc(=O)ss5)cc4)[C@H]1CC[C@H]2[C@@]12CO[C@]3(O)[C@@H](O)[C@@H]1C(C)(C)CCC2=O` are 18.3 µM and 19.1 µM.
Take `C=C1C(=O)[C@]23[C@H](OC(=O)CCC(=O)OCC#CCOC(=O)c4ccc(N=C=S)cc4)[C@H]1CC[C@H]2[C@@]12CO[C@]3(O)[C@@H](O)[C@@H]1C(C)(C)CC[C@@H]2O`: the IC50 in the test on A549 and in the test with MCF7 was over 40 µM each time.
Take `C=C1C(=O)[C@]23[C@H](OC(=O)CCC(=O)OCCCCOC(=O)c4ccc(N=C=S)cc4)[C@H]1CC[C@H]2[C@@]12CO[C@]3(O)[C@@H](O)[C@@H]1C(C)(C)CC[C@@H]2O`: the IC50 in the test with A549 and with MCF7 was over 40 µM throughout.
Turning to `O=c1[nH]cc(F)c(=O)[nH]1` [FLUOROURACIL], the concentration for half-maximal inhibition (IC50) with A549 is 11.9 µM; with MCF7, 25.1 µM.
On the same counts, the results for `C=C1C(=O)[C@]23[C@H](OC(=O)CCC(=O)OCCOC(=O)c4ccc(N=C=S)cc4)[C@H]1CC[C@H]2[C@@]12CO[C@]3(O)[C@@H](O)[C@@H]1C(C)(C)CC[C@@H]2OC(C)=O` are 21.2 µM and 8.8 µM.
Turning to `C=C1C(=O)[C@]23[C@H](OC(=O)CCC(=O)OCCCOC(=O)c4ccc(N=C=S)cc4)[C@H]1CC[C@H]2[C@@]12CO[C@]3(O)[C@@H](O)[C@@H]1C(C)(C)CC[C@@H]2O`, the 50% inhibitory concentration (IC50) in the test with A549 is 36.5 µM; in the test with MCF7, over 40 µM.
On the same counts, the results for `C=C1C(=O)[C@]23[C@H](OC(=O)CCCC(=O)OCCCCOC(=O)c4ccc(N=C=S)cc4)[C@H]1CC[C@H]2[C@@]12CO[C@]3(O)[C@@H](O)[C@@H]1C(C)(C)CC[C@@H]2O` are over 40 µM and over 40 µM.

A word on the IC50: it is the point on the concentration scale where inhibition reaches its midpoint.
